Assay results published in patent publication US5428041A, “Antihypercholesterolemic bis-trifluoromethyl-substituted imidazolines and derivatives thereof” (The Du Pont Merck Pharmaceutical Company, priority 1992, dated 1995).
Where a name gives a salt, the structure may show the parent alone.

Experiments:
[1] = test system: murine macrophage-like cell line J744.A1; assay: Inhibition of cholesterol esterification in mammalian cells (macrophage); format: cell-based; conditions: Mus musculus; J744.A1 macrophage-like cells loaded with ac-LDL, 14C oleic acid
Procedure: B. Assay of the Inhibition of Cholesterol Esterification in Mammalian Cells The esterification of cholesterol was determined in the murine macrophage-like cell line J744.A1. Cells were seeded in 35 mm wells at a density of 300,000 cells per well in 2 mls of Dulbecco's Modified Eagle Medium (DMEM) supplemented with 10% fetal bovine serum (FBS). Cells were incubated at 37° C. in an atmosphere of 5% CO2 and 93% humidity. After 24 hours the media was changed to 0.68 mls 10% FBS-DMEM containing 34 μg of acetylated human low density lipoprotein (ac-LDL) to increase the intracellular concentration of cholesterol and promote esterification. At 41 hours, various inhibitors were added to the cells in DMSO (10 μl/ml maximum). At 43 hours, the cells were pulsed with 0.1 mM ^14 C oleic acid (10,000 dpm/nmol) complexed with BSA (bovine serum albumin) to follow cholesterol ester formation. The experiment was terminated at 45 hours by washing the monolayers 3 times with 3 ml of Tris-buffered saline at 4° C. The lipids were extracted by incubating the monolayers with 1.5 ml of hexane: isopropanol (3:2, v/v) for 30 min. under gentle agitation. During this period, 10,000 dpm ^3 H-cholesteryl linoleate and 10 μg of cholesteryl oleate were added as an internal standard and carrier respectively. The organic solvent was remoted and the cells were washed with an additional 1.0 ml of hexane: isopropanol which was combined with the original extract. The cells were allowed to dry overnight, digested with 1.5 ml of 0.2 N sodium hydroxide for 1 hour and an aliquot of the solubilized protein used for protein determination using the Lowry method. […] Individual lipids were visualized with iodine and the cholesteryl ester spot cut out and transferred to scintillation vials to determine the amount of radioactivity.

[2] = target: T1, Acyl-CoA: Cholesterol Acyltransferase (ACAT) (Rattus norvegicus, UniProt Q7TQM4); assay: Inhibition of Acyl-CoA:Cholesterol Acyltransferase (ACAT) in hepatic microsomes; format: biochemical, Sprague Dawley rat; conditions: rat hepatic microsomes, 14C-oleoyl-CoA, 37° C., pH 7.4; read-out: In Vitro ACAT IC50
T1 construct: centrifuged at 105,000×g for 1 hour to pellet the microsomes; from tissue; host or cells: liver microsomes of fasted male Sprague Dawley rats
T1 sequence (Q7TQM4 1-524): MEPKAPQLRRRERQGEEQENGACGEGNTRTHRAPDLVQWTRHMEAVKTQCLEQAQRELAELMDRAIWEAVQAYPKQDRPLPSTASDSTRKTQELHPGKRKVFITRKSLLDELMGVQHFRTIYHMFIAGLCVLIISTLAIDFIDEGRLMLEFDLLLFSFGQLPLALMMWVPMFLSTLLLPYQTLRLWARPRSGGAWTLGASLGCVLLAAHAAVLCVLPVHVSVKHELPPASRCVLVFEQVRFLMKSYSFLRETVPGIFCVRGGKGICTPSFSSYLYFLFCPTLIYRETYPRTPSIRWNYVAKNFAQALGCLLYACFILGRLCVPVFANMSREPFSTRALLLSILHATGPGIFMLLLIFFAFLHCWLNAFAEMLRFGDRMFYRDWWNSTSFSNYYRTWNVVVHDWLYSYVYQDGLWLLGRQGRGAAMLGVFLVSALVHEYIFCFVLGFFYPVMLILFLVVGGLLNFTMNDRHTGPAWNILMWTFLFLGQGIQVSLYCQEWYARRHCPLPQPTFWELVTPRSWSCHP
Procedure: A. Assay of the Inhibition of Acyl-CoA: Cholesterol Acyltransferase (ACAT) in Hepatic Microsomes
The ability of the compounds to inhibit ACAT, the enzyme responsible for the intracellular synthesis of cholesteryl esters, was tested as follows. Male Sprague Dawley rates weighing 150-300 g were fed rat chow ad libitum. The animals were fasted for twenty-four hours prior to being sacrificed by decapitation. The livers were perfused in situ with 50 ml of cold 0.25M sucrose, excised and homogenized in three volumes of 0.1M phosphate buffer, pH 7.4, that contained 0.5 mM EDTA (ethylenediaminetetraacetic acid), 1.0 mM glutathione, 0.25M sucrose and 20 mM leupeptin. Microsomes were obtained by differential centrifugation; the supernatant from an initial spin at 15,000×g for 15 minutes was centrifuged at 105,000×g for 1 hour to pellet the microsomes. The microsomes were suspended in homogenization buffer, reisolated by centrifugation, and stored at -70° C. Microsomes were used within one month of preparation.
The control assay in a final volume of 200 μl consisted of 200 μg of microsomal protein, 75 μM ^14 C-oleoyl-CoA (10,000 dpm/nmol) in 0.1M phosphate, pH 7.4, that contained 1 mM glutathione. Compounds were added in 5-10 μl of DMSO (dimethyl sulfoxide or ethanol) and additional controls were run with DMSO or ethanol only. All components, except the oleoyl-CoA, were preincubated for 15 min. at 37° C. prior to the initiation of the reaction by the addition of oleoyl CoA. The assay was terminated after 10 min by the addition of 4 ml of chloroform:methanol (2:1, v/v). 20,000 dpm of ^3 H-cholesteryl oleate and 10 μg of unlabeled cholesteryl oleate and oleic acid were added as an internal standard and carrier, respectively. After allowing 10 min. for lipid extraction, 0.8 ml of deionized water was added to separate the solution into two phases. The lower chloroform phase was collected, dried under nitrogen and resuspended in 100 μl of chloroform. The sample containing the neutral lipids was spotted onto a Gelman ITLC-SA polysilicic acid gel-impregnated sheet, which was developed using a hexane: diethyl ether: acetic acid (170:30:1 v/v/v) mobile phase. The lipids were visualized by their interaction with iodine vapor and the cholesteryl ester spot was scraped into a scintillation vial and counted. The specific activity of ACAT in the control incubation averaged 260 pmol/min/mg microsomal protein. The inhibition of ACAT activity by the compounds is shown in Table 7; the data are expressed as the concentration at which ACAT activity is inhibited by 50% (IC50).

[3] = Oral bioavailability of polymorphs; format: in vivo; conditions: compared to the higher melting form
[4] = Water solubility of polymorphs; format: physicochemical; conditions: compared with the higher melting polymorph
ACAT = assay: Systemic ACAT inhibitory activity; format: in vivo; conditions: oral, compared to the higher melting form

| Compound | IC50 [1] [µM] | IC50 [2] [µM] | oral bioavailability [3] | water solubility relative to the 181°-183° C. melting polymorph [4] [fold] | systemic ACAT inhibitory activity (ACAT) |
| --- | --- | --- | --- | --- | --- |
| CN(C(=O)C12CCC(C)(C(=O)O1)C2(C)C)C1N(C)C(c2ccc(F)cc2)=NC1(C(F)(F)F)C(F)(F)F (single isomer, unassigned) [Example 25] | 98 | 41 |  |  |  |
| CN(C(=O)c1ccc(F)cc1)C1N(C)C(c2ccc(F)cc2)=NC1(C(F)(F)F)C(F)(F)F (stereo not drawn) [Example 10A, N-[4,4-bis(trifluoromethyl)2-(4-fluorophenyl)-4,5-dihydro-1-methyl-1H-imidazol-5-yl]-4-fluorophenyl-N-methylbenzamide] | 105 | 22 |  |  |  |
| CN(C(=O)c1ccc(C#N)cc1)C1N(C)C(c2ccc(C#N)cc2)=NC1(C(F)(F)F)C(F)(F)F (stereo not drawn) [132°-134° melting polymorph, N-[4,4-bis[trifluoromethyl)-4,5-dihydro-1-methyl-2-[4-cyanophenyl]-1H-imidazol-5-yl]-N-methyl-4-cyanobenzamide] |  |  | greater oral bioavailability | 3 | improved systemic ACAT inhibitory activity |
| CCCCOc1ccc(C(=O)N(C)C2N(C)C(c3ccc(F)cc3)=NC2(C(F)(F)F)C(F)(F)F)cc1 (stereo not drawn) [Example 11, N-[4,4-bis(trifluoromethyl)-2-(4-fluorophenyl)-4,5-dihydro-1-methyl-1H-imidazol-5-yl]-4-butoxy-N-methylbenzamide] | 14 | 2 |  |  |  |

Continued, in another order:

| IC50 [1] [µM] | IC50 [2] [µM] | Compound | oral bioavailability [3] | water solubility relative to the 181°-183° C. melting polymorph [4] [fold] | systemic ACAT inhibitory activity (ACAT) |
| --- | --- | --- | --- | --- | --- |
| 11 | 17 | CN(C(=O)c1ccc(-c2ccccc2)cc1)C1N(C)C(c2ccc(F)cc2)=NC1(C(F)(F)F)C(F)(F)F (stereo not drawn) [Example 15, N-[4,4-bis(trifluoromethyl)-2-(4-fluorophenyl)-4,5-dihydro-1-methyl-1 H-imidazol-5-yl]-N-methyl-[1,1'-biphenyl]-4-carboxamide] |  |  |  |
| 17 | 2 | CCCCCCC(=O)N(C)C1N(C)C(c2ccc(F)cc2)=NC1(C(F)(F)F)C(F)(F)F (stereo not drawn) [Example 16, N-[4,4-bis(trifluoromethyl)-2-(4-fluorophenyl)-4,5-dihydro-1-methyl-1H-imidazol-5-yl]-N-methylheptanamide hydrochloride] |  |  |  |
| 18 | 8 | CN(C(=O)c1ccc([N+](=O)[O-])cc1)C1N(C)C(c2ccc(F)cc2)=NC1(C(F)(F)F)C(F)(F)F (stereo not drawn) [Example 14, N-[4,4-bis(trifluoromethyl)-2-(4-fluorophenyl)-4,5-dihydro-1-methyl-1H-imidazol-5-yl]-N-methyl-4-nitrobenzamide] |  |  |  |
